Patent EP3345917A1, “ANTIPROTOZOAL COMPOUNDS” (Bacoba AG, priority 2017, dated 2018)
Non-standard residues stand in square brackets, D forms with d. Residues, ends and D or L forms follow the SMILES beside them. *: point of attachment. Hexenoyl(2E,4S-Me) = CC[C@H](C)/C=C/C(=O)*; Leu(3R-OH) = CC(C)[C@@H](O)[C@H](N)C(=O)O; Gly(octyl) = CCCCCCCC[C@H](N)C(=O)O; X17 = C[C@@H](CN1CCOCC1)N*; Aib = CC(C)(N)C(=O)O; βAla = NCCC(=O)O

Experiments:
[1] = test system: intracellular Leishmania donovani (L.don. InMac); test: Intracellular Leishmania donovani assay (L.don. InMac); type: cell-based; settings: In vitro inhibition
From the text: Tests were done in triplicate.

[2] = Cytotoxicity assay on L6-cells (Alamar Blue); settings: rat, Cytotox L6, Cytotoxicity against rat myoblast cells (L6)
rat myoblast (L6-cells) = test: Cytotoxicity assay on L6-cells (Alamar Blue); settings: read-out: Cytotox L6; Cytotoxicity against rat myoblast cells (L6)

CCCCCCCC[C@H](NC(=O)[C@@H]1CCCN1C(=O)/C=C/[C@@H](C)CC)C(=O)N[C@H](C(=O)NC(C)(C)C(=O)N[C@@H](CC(C)C)C(=O)N[C@@H](CC(C)C)C(=O)NC(C)(C)C(=O)NC(C)(C)C(=O)NCCC(=O)N[C@@H](C)CN1CCOCC1)[C@H](O)C(C)C [Compound 5573, (2S)-N-[(1S,2R)-2-hydroxy-3-methyl-1-[(1-methyl-1-{[(1S)-3-methyl-1-{[(1S)-3-methyl-1-{[1-methyl-1-({1-methyl-1-[(2-{[(2S)-1-(morpholin-4-yl)propan-2-yl]carbamoyl}ethyl)carbamoyl]ethyl}carbamoyl)ethyl]carbamoyl}butyl]carbamoyl}butyl]carbamoyl}ethyl)carbamoyl]butyl]-2-{[(2S)-1-[(2E,4S)-4-methylhex-2-enoyl]pyrrolidin-2-yl]formamido}decanamide] ({Hexenoyl(2E,4S-Me)}-P[Gly(octyl)][Leu(3R-OH)][Aib]LL[Aib][Aib][βAla]-X17)
IC50 [1]: 20.4 nM | IC50 at 70 h [2]: 512 nM | IC50 (rat myoblast (L6-cells)): 738 nM
